Molecular target: SAE (Homo sapiens (Human), UniProt Q9UBT2)
Test: In vitro inhibitory activity assay against SAE (SUMO-2/3 immunofluorescence in HCT116 cells)
Assay type: cell-based
Details: 6 h incubation, class symbols, read-out: SUMO IF IC50
Protocol: HCT116 cells were seeded into a 96-well black transparent bottom plate at about 20000/well with 90 μL per well. The cells were incubated at 37° C. overnight for 24 h. The test compounds were 10-fold diluted to give a final concentration, and 10 μL of the diluted compounds was added to each well of the cell culture plate. The mixture was incubated at 37° C. for 6 h. The cells were then washed gently, the culture medium was discarded, and the cells were washed once with 200 μL of 0.1% o PBST. 50 μL of 4% PFA was added to each well, and the cells were immobilized at room temperature for 20 min, and then washed with PBS 2-3 times. 50 μL of 0.2% o Triton X-100 was added to each well, and the cells were left to stand at room temperature for 15 min and washed with 0.1% PBST 3 times. 100 uL of 3% BSA (0.6 g BSA+20 mL PBS) was added to each well, and the mixture was blocked at 37° C. for 30 min. After the blocking was completed, the liquid was removed and a primary antibody (SUMO-2/3 (181H8) Rabbit mAb, 1:400 dilution) was prepared with […]. 30 μL of the diluted primary antibody was added to each well, and the mixture was incubated at 4° C. overnight. The cells were washed 3 times with 200 μL of 0.1% o PBST. A FITC secondary antibody (Fluorescein (FITC)-conjugated Affinipure Goat Anti-Rabbit IgG (H+L), 1:300 dilution) was further prepared with 1% o BSA, and 40 μL of the diluted secondary antibody was added to each well. The mixture was incubated at room temperature in the dark for 2 h, and then the cells were washed 4 times with 0.1% PBST. The fluorescence signal of the sample was detected and compared to the DMSO group, and the inhibition rate and IC50 were calculated.

Sequence of SAE (Q9UBT2 whole entry): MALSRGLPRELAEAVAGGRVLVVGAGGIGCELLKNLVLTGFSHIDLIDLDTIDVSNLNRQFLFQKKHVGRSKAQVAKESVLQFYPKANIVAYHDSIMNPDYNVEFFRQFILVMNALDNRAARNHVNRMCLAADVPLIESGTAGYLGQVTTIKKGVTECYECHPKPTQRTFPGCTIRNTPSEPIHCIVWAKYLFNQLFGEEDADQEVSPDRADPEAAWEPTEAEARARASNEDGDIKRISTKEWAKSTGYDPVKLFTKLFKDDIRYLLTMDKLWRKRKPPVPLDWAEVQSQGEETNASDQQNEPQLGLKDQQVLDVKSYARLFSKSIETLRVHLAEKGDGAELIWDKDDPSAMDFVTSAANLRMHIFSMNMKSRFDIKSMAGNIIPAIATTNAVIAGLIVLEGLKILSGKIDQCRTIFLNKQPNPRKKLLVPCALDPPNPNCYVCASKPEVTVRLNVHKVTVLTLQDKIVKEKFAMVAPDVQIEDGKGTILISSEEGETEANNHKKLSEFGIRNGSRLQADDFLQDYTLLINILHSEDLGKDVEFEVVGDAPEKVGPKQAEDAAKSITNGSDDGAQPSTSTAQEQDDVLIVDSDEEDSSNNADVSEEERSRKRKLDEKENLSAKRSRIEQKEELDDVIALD
Sequence of SAE (Q9UBE0 whole entry partner): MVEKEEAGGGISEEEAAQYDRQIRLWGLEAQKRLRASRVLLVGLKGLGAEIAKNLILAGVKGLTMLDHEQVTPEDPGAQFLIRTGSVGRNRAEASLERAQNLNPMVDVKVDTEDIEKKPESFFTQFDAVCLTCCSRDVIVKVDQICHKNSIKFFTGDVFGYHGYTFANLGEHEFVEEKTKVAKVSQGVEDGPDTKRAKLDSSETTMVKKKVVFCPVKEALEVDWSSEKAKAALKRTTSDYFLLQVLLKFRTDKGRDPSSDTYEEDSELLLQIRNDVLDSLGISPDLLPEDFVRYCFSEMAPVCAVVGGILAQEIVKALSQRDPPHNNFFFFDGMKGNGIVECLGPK

Compound	IC50
NS(=O)(=O)OC[C@H]1C[C@@H](Nc2ncncc2C(=O)c2cc3c(s2)CSC[C@@]32NCCc3ccccc32)C[C@@H]1O [Compound 86]	> 200 nM
NS(=O)(=O)OC[C@H]1C[C@@H](Nc2ncncc2C(=O)c2cc3c(s2)OCCC32NCCc3ccc(Cl)cc32)C[C@@H]1O (stereo partly drawn) [Compound 38]	50 to 200 nM
NS(=O)(=O)OC[C@H]1C[C@@H](Nc2ncncc2C(=O)c2cc3c(s2)CC[C@]32NCCc3cc(F)c(Cl)c(F)c32)C[C@@H]1O [Compound 233]	≤ 50 nM
NS(=O)(=O)OC[C@H]1C[C@@H](Nc2ncncc2C(=O)c2cc3c(s2)CCC32NCCc3ccncc32)C[C@@H]1O (stereo partly drawn) [Compound 76]	50 to 200 nM
N#Cc1ccc2c(c1)[C@@]1(CCc3sc(C(=O)c4cncnc4N[C@@H]4C[C@H](COS(N)(=O)=O)[C@@H](O)C4)cc31)OCC2 [Compound 288]	≤ 50 nM
CCN1Cc2sc(C(=O)c3cncnc3N[C@@H]3C[C@H](COS(N)(=O)=O)[C@@H](O)C3)cc2C2(C1)OCCc1ccc(F)cc12 (stereo partly drawn) [Compound 262]	50 to 200 nM
Cc1ccc2c(c1)C1(CCc3sc(C(=O)c4cncnc4N[C@@H]4C[C@H](COS(N)(=O)=O)[C@@H](O)C4)cc31)NCC2 (stereo partly drawn) [Compound 64]	50 to 200 nM
N#Cc1ccc2c(c1)[C@]1(C=Cc3sc(C(=O)c4cncnc4N[C@@H]4C[C@H](COS(N)(=O)=O)[C@@H](O)C4)cc31)OCC2 [Compound 299]	> 200 nM
CC1=C[C@]2(NCCc3ccc(Cl)cc32)c2cc(C(=O)c3cncnc3N[C@@H]3C[C@H](COS(N)(=O)=O)[C@@H](O)C3)sc21 [Compound 159]	≤ 50 nM
NS(=O)(=O)OC[C@H]1C[C@@H](Nc2ncncc2C(=O)c2cc3c(s2)C(F)=CC32NCCc3ccc(Cl)cc32)C[C@@H]1O (stereo partly drawn) [Compound 154]	≤ 50 nM
NS(=O)(=O)OC[C@H]1C[C@@H](Nc2ncncc2C(=O)c2cc3c(s2)C=C[C@]32OCCc3ccc(Cl)cc32)C[C@@H]1O [Compound 297]	≤ 50 nM
NS(=O)(=O)OC[C@H]1C[C@@H](Nc2ncncc2C(=O)c2cc3c(s2)CC[C@]32NCCc3cc(F)c(F)cc32)C[C@@H]1O [Compound 227]	≤ 50 nM
NS(=O)(=O)OC[C@H]1C[C@@H](Nc2ncncc2C(=O)c2cc3c(s2)CCC32NCCc3cc(Cl)ncc32)C[C@@H]1O (stereo partly drawn) [Compound 77]	50 to 200 nM
NS(=O)(=O)OC[C@H]1C[C@@H](Nc2ncncc2C(=O)c2cc3c(s2)COCC32NCCc3ccc(F)cc32)C[C@@H]1O (stereo partly drawn) [Compound 16]	50 to 200 nM
NS(=O)(=O)OC[C@H]1C[C@@H](Nc2ncncc2C(=O)c2cc3c(s2)COC[C@]32NCCc3ccc(Cl)c(F)c32)C[C@@H]1O [Compound 105]	50 to 200 nM
NS(=O)(=O)OC[C@H]1C[C@@H](Nc2ncncc2C(=O)c2cc3c(s2)COC32NCCc3ccc(Cl)cc32)C[C@@H]1O (stereo partly drawn) [Compound 80]	50 to 200 nM
NS(=O)(=O)OC[C@H]1C[C@@H](Nc2ncncc2C(=O)c2cc3c(s2)CCC[C@@]32OCCc3ccc(F)cc32)C[C@@H]1O [Compound 248]	> 200 nM
CCN1Cc2sc(C(=O)c3cncnc3N[C@@H]3C[C@H](COS(N)(=O)=O)[C@@H](O)C3)cc2C2(C1)NCCc1ccc(Cl)cc12 (stereo partly drawn) [Compound 181]	≤ 50 nM
NS(=O)(=O)OC[C@H]1C[C@@H](Nc2ncncc2C(=O)c2cc3c(s2)CC[C@]32NCCc3cc(F)c(Cl)cc32)C[C@@H]1O [Compound 228]	≤ 50 nM
NS(=O)(=O)OC[C@H]1C[C@@H](Nc2ncncc2C(=O)c2cc3c(s2)C=C[C@@]32OCCc3ccc(Cl)cc32)C[C@@H]1O [Compound 296]	> 200 nM
NS(=O)(=O)OC[C@H]1C[C@@H](Nc2ncncc2C(=O)c2cc3c(s2)COCC32NCCc3ccc(Cl)cc32)C[C@@H]1O (stereo partly drawn) [Compound 19]	50 to 200 nM
CN1Cc2sc(C(=O)c3cncnc3N[C@@H]3C[C@H](COS(N)(=O)=O)[C@@H](O)C3)cc2C2(C1)OCCc1ccc(Cl)cc12 (stereo partly drawn) [Compound 259]	≤ 50 nM

Compound	IC50
N#Cc1ccc2c(c1)[C@]1(CCCc3sc(C(=O)c4cncnc4N[C@@H]4C[C@H](COS(N)(=O)=O)[C@@H](O)C4)cc31)OCC2 [Compound 251]	> 200 nM
COc1ccc2c(c1)[C@]1(CCCc3sc(C(=O)c4cncnc4N[C@@H]4C[C@H](COS(N)(=O)=O)[C@@H](O)C4)cc31)NCC2 [Compound 179]	> 200 nM
NS(=O)(=O)OC[C@H]1C[C@@H](Nc2ncncc2C(=O)c2cc3c(s2)CC[C@]32OCCc3ccccc32)C[C@@H]1O [Compound 282]	50 to 200 nM
NS(=O)(=O)OC[C@H]1C[C@@H](Nc2ncncc2C(=O)c2cc3c(s2)CCC[C@@]32NCC3(CC3)c3ccc(Cl)cc32)C[C@@H]1O [Compound 152]	> 200 nM
NS(=O)(=O)OC[C@H]1C[C@@H](Nc2ncncc2C(=O)c2cc3c(s2)CSCC32NCCc3ccc(F)cc32)C[C@@H]1O (stereo partly drawn) [Compound 88]	≤ 50 nM
NS(=O)(=O)OC[C@H]1C[C@@H](Nc2ncncc2C(=O)c2cc3c(s2)CC=C[C@]32NCCc3ccc(Cl)cc32)C[C@@H]1O [Compound 217]	≤ 50 nM
NS(=O)(=O)OC[C@H]1C[C@@H](Nc2ncncc2C(=O)c2cc3c(s2)CCC32NCC(=O)c3ccc(Cl)cc32)C[C@@H]1O (stereo partly drawn) [Compound 83]	50 to 200 nM
NS(=O)(=O)OC[C@H]1C[C@@H](Nc2ncncc2C(=O)c2cc3c(s2)C(=O)C[C@]32NCCc3ccc(Cl)cc32)C[C@@H]1O [Compound 168]	50 to 200 nM
NS(=O)(=O)OC[C@H]1C[C@@H](Nc2ncncc2C(=O)c2cc3c(s2)CCC[C@]32NCCc3cc(F)c(Cl)c(F)c32)C[C@@H]1O [Compound 212]	≤ 50 nM
NS(=O)(=O)OC[C@H]1C[C@@H](Nc2ncncc2C(=O)c2cc3c(s2)CN(C2CC2)CC32OCCc3ccc(Cl)cc32)C[C@@H]1O (stereo partly drawn) [Compound 277]	50 to 200 nM
[2H]C1([2H])Cc2ccc(Cl)cc2[C@@]2(C=Cc3sc(C(=O)c4cncnc4N[C@@H]4C[C@H](COS(N)(=O)=O)[C@@H](O)C4)cc32)N1 [Compound 237]	≤ 50 nM
COc1ccc2c(c1)C1(CCc3sc(C(=O)c4cncnc4N[C@@H]4C[C@H](COS(N)(=O)=O)[C@@H](O)C4)cc31)NCC2 (stereo partly drawn) [Compound 66]	> 200 nM
N#Cc1ccc2c(c1)[C@@]1(CCCc3sc(C(=O)c4cncnc4N[C@@H]4C[C@H](COS(N)(=O)=O)[C@@H](O)C4)cc31)NCC2 [Compound 12]	≤ 50 nM
NS(=O)(=O)OC[C@H]1C[C@@H](Nc2ncncc2C(=O)c2cc3c(s2)C=C[C@]32OCCc3ccccc32)C[C@@H]1O [Compound 291]	50 to 200 nM
NS(=O)(=O)OC[C@H]1C[C@@H](Nc2ncncc2C(=O)c2cc3c(s2)CSCC32NCCc3cnc(Cl)cc32)C[C@@H]1O (stereo partly drawn) [Compound 142]	50 to 200 nM
NS(=O)(=O)OC[C@H]1C[C@@H](Nc2ncncc2C(=O)c2cc3c(s2)CC[C@]32NCCc3cc(Cl)c(F)cc32)C[C@@H]1O [Compound 234]	≤ 50 nM
NS(=O)(=O)OC[C@H]1C[C@@H](Nc2ncncc2C(=O)c2cc3c(s2)CCC[C@]32NC(=O)Cc3ccc(Cl)cc32)C[C@@H]1O [Compound 165]	> 200 nM
NS(=O)(=O)OC[C@H]1C[C@@H](Nc2ncncc2C(=O)c2cc3c(s2)CSC[C@@]32NCCc3ccc(Cl)nc32)C[C@@H]1O [Compound 146]	> 200 nM
CC(C)N1Cc2sc(C(=O)c3cncnc3N[C@@H]3C[C@H](COS(N)(=O)=O)[C@@H](O)C3)cc2C2(C1)OCCc1ccc(Cl)cc12 (stereo partly drawn) [Compound 271]	50 to 200 nM
CC(C)N1Cc2sc(C(=O)c3cncnc3N[C@@H]3C[C@H](COS(N)(=O)=O)[C@@H](O)C3)cc2C2(C1)NCCc1ccc(Cl)cc12 (stereo partly drawn) [Compound 184]	≤ 50 nM
NS(=O)(=O)OC[C@H]1C[C@@H](Nc2ncncc2C(=O)c2cc3c(s2)CCCC32NCCc3ccc(C(F)(F)F)cc32)C[C@@H]1O (stereo partly drawn) [Compound 25]	50 to 200 nM
NS(=O)(=O)OC[C@H]1C[C@@H](Nc2ncncc2C(=O)c2cc3c(s2)CCC32NCCc3ccc(C4CC4)cc32)C[C@@H]1O (stereo partly drawn) [Compound 65]	50 to 200 nM

Same assay, conditions: 6 h incubation, numeric values, read-out: SUMO IF IC50

Compound	IC50
CC(C)N1Cc2sc(C(=O)c3cncnc3N[C@@H]3C[C@H](COS(N)(=O)=O)[C@@H](O)C3)cc2[C@]2(C1)NCCc1ccc(Cl)cc12 [Compound 186]	16.3 nM
NS(=O)(=O)OC[C@H]1C[C@@H](Nc2ncncc2C(=O)c2cc3c(s2)CN(CC(F)(F)F)C[C@]32NCCc3ccc(Cl)cc32)C[C@@H]1O [Compound 189]	24.5 nM
NS(=O)(=O)OC[C@H]1C[C@@H](Nc2ncncc2C(=O)c2cc3c(s2)CC[C@]32NCCc3ccc(F)cc32)C[C@@H]1O [Compound 51]	50.7 nM
NS(=O)(=O)OC[C@H]1C[C@@H](Nc2ncncc2C(=O)c2cc3c(s2)CC[C@]32NCCc3ccccc32)C[C@@H]1O [Compound 45]	125 nM
NS(=O)(=O)OC[C@H]1C[C@@H](Nc2ncncc2C(=O)c2cc3c(s2)CC[C@@]32NCCc3ccc(Cl)cc32)C[C@@H]1O [Compound 47]	> 1000 nM
C=CCN1Cc2sc(C(=O)c3cncnc3N[C@@H]3C[C@H](COS(N)(=O)=O)[C@@H](O)C3)cc2[C@@]2(C1)NCCc1ccc(Cl)cc12 [Compound 191]	> 1000 nM
[2H]C1([2H])CN[C@]2(CCCc3sc(C(=O)c4cncnc4N[C@@H]4C[C@H](COS(N)(=O)=O)[C@@H](O)C4)cc32)c2cc(Cl)ccc21 [Compound 201]	26.5 nM

Reference: US20260035382A1, “COMPOUNDS AS SUMO ACTIVATING ENZYME INHIBITORS” (WIGEN BIOMEDICINE TECHNOLOGY (SHANGHAI) CO., LTD., priority 2022, published 2026)
